Measurements: PubChem BioAssay (NCI)
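Interpolation was linear, between the two tested concentrations surrounding the appropriate level; five concentrations were tested over 48 hours in 96-well plates. At the TGI there is no net growth.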

Assays:
Assay in all cases: inhibition of tumour cell growth, NCI panel, 48 h
NCI-H226 lung = tested on: NCI-H226 lung
RPMI-8226 leukemia = tested on: RPMI-8226 leukemia
MALME-3M melanoma = tested on: MALME-3M melanoma
HCT-15 colon = tested on: HCT-15 colon
NCI-H460 lung = tested on: NCI-H460 lung
HL-60(TB) leukemia = tested on: HL-60(TB) leukemia
OVCAR-8 ovarian = tested on: OVCAR-8 ovarian
SF-539 CNS = tested on: SF-539 CNS
NCI-H522 lung = tested on: NCI-H522 lung
HOP-92 NSCLC = tested on: HOP-92 NSCLC
BT-549 breast = tested on: BT-549 breast
TK-10 renal = tested on: TK-10 renal
UACC-62 melanoma = tested on: UACC-62 melanoma
SF-268 CNS = tested on: SF-268 CNS
CAKI-1 renal = tested on: CAKI-1 renal
HS 578T breast = tested on: HS 578T breast
U251 CNS = tested on: U251 CNS
M14 melanoma = tested on: M14 melanoma
HCC-2998 colon = tested on: HCC-2998 colon
SR leukemia = tested on: SR leukemia
NCI/ADR-RES ovarian = tested on: NCI/ADR-RES ovarian
HOP-62 NSCLC = tested on: HOP-62 NSCLC
A498 renal = tested on: A498 renal
SK-MEL-5 melanoma = tested on: SK-MEL-5 melanoma
LOX IMVI melanoma = tested on: LOX IMVI melanoma
CCRF-CEM leukemia = tested on: CCRF-CEM leukemia
OVCAR-4 ovarian = tested on: OVCAR-4 ovarian
KM12 colon = tested on: KM12 colon
SK-MEL-28 melanoma = tested on: SK-MEL-28 melanoma
MDA-MB-435 = tested on: MDA-MB-435
SK-MEL-2 melanoma = tested on: SK-MEL-2 melanoma
RXF 393 renal = tested on: RXF 393 renal
DU-145 prostate = tested on: DU-145 prostate
SN12C renal = tested on: SN12C renal
OVCAR-3 ovarian = tested on: OVCAR-3 ovarian
SNB-75 CNS = tested on: SNB-75 CNS
IGROV1 ovarian = tested on: IGROV1 ovarian
OVCAR-5 ovarian = tested on: OVCAR-5 ovarian
MCF7 breast = tested on: MCF7 breast
UACC-257 melanoma = tested on: UACC-257 melanoma
ACHN renal = tested on: ACHN renal
786-0 renal = tested on: 786-0 renal
HCT-116 colon = tested on: HCT-116 colon
T-47D breast = tested on: T-47D breast
MDA-MB-231 breast = tested on: MDA-MB-231 breast
EKVX NSCLC = tested on: EKVX NSCLC
MOLT-4 leukemia = tested on: MOLT-4 leukemia
COLO 205 colon = tested on: COLO 205 colon
SW-620 colon = tested on: SW-620 colon
SK-OV-3 ovarian = tested on: SK-OV-3 ovarian
K-562 leukemia = tested on: K-562 leukemia
UO-31 renal = tested on: UO-31 renal
HT29 colon = tested on: HT29 colon
NCI-H23 lung = tested on: NCI-H23 lung
PC-3 prostate = tested on: PC-3 prostate
A549 NSCLC = tested on: A549 NSCLC
SF-295 CNS = tested on: SF-295 CNS
SNB-19 CNS = tested on: SNB-19 CNS
MDA-N = tested on: MDA-N

**Q.** How did the TGI (NCI-H226 lung) turn out when `O=C1N[C@@H]2c3c(Br)sc(Br)c3C(=O)[C@@H]2N1` was run?
**A.** 91.2 µM

**Q.** What about the TGI (RPMI-8226 leukemia) of the same compound?
**A.** 18.5 µM

**Q.** What about the TGI (MALME-3M melanoma) of the same compound?
**A.** 18.3 µM

**Q.** And the TGI (HCT-15 colon)?
**A.** 11.1 µM

**Q.** What about the TGI (NCI-H460 lung) of the same compound?
**A.** 18.3 µM

**Q.** And the TGI (HL-60(TB) leukemia)?
**A.** 5.36 µM

**Q.** And the TGI (OVCAR-8 ovarian)?
**A.** 10.5 µM

**Q.** And the TGI (SF-539 CNS)?
**A.** 8.88 µM

**Q.** And the TGI (NCI-H522 lung)?
**A.** 11.2 µM

**Q.** What about the TGI (HOP-92 NSCLC) of the same compound?
**A.** 12.5 µM

**Q.** What about the TGI (BT-549 breast) of the same compound?
**A.** 53 µM

**Q.** What about the TGI (TK-10 renal) of the same compound?
**A.** 6.09 µM

**Q.** What about the TGI (UACC-62 melanoma) of the same compound?
**A.** 15.4 µM

**Q.** And the TGI (SF-268 CNS)?
**A.** 13.8 µM

**Q.** And the TGI (CAKI-1 renal)?
**A.** 8.56 µM

**Q.** What about the TGI (HS 578T breast) of the same compound?
**A.** 37 µM

**Q.** What about the TGI (U251 CNS) of the same compound?
**A.** 7.03 µM

**Q.** What about the TGI (M14 melanoma) of the same compound?
**A.** 16.5 µM

**Q.** And the TGI (HCC-2998 colon)?
**A.** 3.42 µM

**Q.** What about the TGI (SR leukemia) of the same compound?
**A.** 4.72 µM

**Q.** And the TGI (NCI/ADR-RES ovarian)?
**A.** > 70.6 µM

**Q.** What about the TGI (HOP-62 NSCLC) of the same compound?
**A.** 20.6 µM

**Q.** What about the TGI (A498 renal) of the same compound?
**A.** 34 µM

**Q.** What about the TGI (SK-MEL-5 melanoma) of the same compound?
**A.** 23.9 µM

**Q.** And the TGI (LOX IMVI melanoma)?
**A.** 4.28 µM

**Q.** What about the TGI (CCRF-CEM leukemia) of the same compound?
**A.** 3.29 µM

**Q.** And the TGI (OVCAR-4 ovarian)?
**A.** 16.8 µM

**Q.** What about the TGI (KM12 colon) of the same compound?
**A.** 19.4 µM

**Q.** And the TGI (SK-MEL-28 melanoma)?
**A.** 12.3 µM

**Q.** What about the TGI (MDA-MB-435) of the same compound?
**A.** 4.83 µM

**Q.** What about the TGI (SK-MEL-2 melanoma) of the same compound?
**A.** 13.7 µM

**Q.** And the TGI (RXF 393 renal)?
**A.** 14.3 µM

**Q.** And the TGI (DU-145 prostate)?
**A.** 17.2 µM

**Q.** And the TGI (SN12C renal)?
**A.** 14.5 µM

**Q.** What about the TGI (OVCAR-3 ovarian) of the same compound?
**A.** 6.72 µM

**Q.** And the TGI (SNB-75 CNS)?
**A.** 18.4 µM

**Q.** And the TGI (IGROV1 ovarian)?
**A.** 7.16 µM

**Q.** And the TGI (OVCAR-5 ovarian)?
**A.** 35.1 µM

**Q.** And the TGI (MCF7 breast)?
**A.** 10.1 µM

**Q.** What about the TGI (UACC-257 melanoma) of the same compound?
**A.** 8.19 µM

**Q.** What about the TGI (ACHN renal) of the same compound?
**A.** 14.1 µM

**Q.** And the TGI (786-0 renal)?
**A.** 6.4 µM

**Q.** And the TGI (HCT-116 colon)?
**A.** 3.88 µM

**Q.** And the TGI (T-47D breast)?
**A.** 21.5 µM

**Q.** And the TGI (MDA-MB-231 breast)?
**A.** 10.9 µM

**Q.** And the TGI (EKVX NSCLC)?
**A.** 17.1 µM

**Q.** What about the TGI (MOLT-4 leukemia) of the same compound?
**A.** 9.08 µM

**Q.** What about the TGI (COLO 205 colon) of the same compound?
**A.** 12.1 µM

**Q.** And the TGI (SW-620 colon)?
**A.** 4.33 µM

**Q.** And the TGI (SK-OV-3 ovarian)?
**A.** 27.1 µM

**Q.** And the TGI (K-562 leukemia)?
**A.** > 100 µM

**Q.** What about the TGI (UO-31 renal) of the same compound?
**A.** 9.93 µM

**Q.** What about the TGI (HT29 colon) of the same compound?
**A.** 9.01 µM

**Q.** What about the TGI (NCI-H23 lung) of the same compound?
**A.** 17 µM

**Q.** And the TGI (PC-3 prostate)?
**A.** 10.4 µM

**Q.** What about the TGI (A549 NSCLC) of the same compound?
**A.** 30 µM

**Q.** And the TGI (SF-295 CNS)?
**A.** 29.5 µM

**Q.** And the TGI (SNB-19 CNS)?
**A.** 26.2 µM

**Q.** What about the TGI (MDA-N) of the same compound?
**A.** 5.04 µM

**Q.** Which results are given for `CC(C)(C)c1cc(C(C)(C)C)c2sc(=S)oc2c1O`?
**A.** TGI (NCI-H226 lung): 34.2 µM; TGI (RPMI-8226 leukemia): 33.7 µM; TGI (MALME-3M melanoma): 32.1 µM; TGI (HCT-15 colon): 17.8 µM; TGI (NCI-H460 lung): 18.2 µM; TGI (HL-60(TB) leukemia): 33 µM; TGI (OVCAR-8 ovarian): 20.9 µM; TGI (SF-539 CNS): 11.1 µM; TGI (NCI-H522 lung): 20.5 µM; TGI (HOP-92 NSCLC): 28.9 µM; TGI (BT-549 breast): 23.6 µM; TGI (TK-10 renal): 17.2 µM; TGI (UACC-62 melanoma): 23.4 µM; TGI (SF-268 CNS): 19.8 µM; TGI (CAKI-1 renal): 18.6 µM; TGI (HS 578T breast): 20.4 µM; TGI (U251 CNS): 18.7 µM; TGI (M14 melanoma): 32.4 µM; TGI (SR leukemia): 9.76 µM; TGI (NCI/ADR-RES ovarian): 24.4 µM; TGI (HOP-62 NSCLC): 31.1 µM; TGI (A498 renal): 26 µM; TGI (SK-MEL-5 melanoma): 21.8 µM; TGI (LOX IMVI melanoma): 17.7 µM; TGI (CCRF-CEM leukemia): > 27 µM; TGI (OVCAR-4 ovarian): 26.2 µM; TGI (KM12 colon): 18 µM; TGI (SK-MEL-28 melanoma): 27.6 µM; TGI (MDA-MB-435): 26.8 µM; TGI (SK-MEL-2 melanoma): 24.3 µM; TGI (RXF 393 renal): 14.5 µM; TGI (DU-145 prostate): 25.5 µM; TGI (SN12C renal): 19.7 µM; TGI (OVCAR-3 ovarian): 17.5 µM; TGI (SNB-75 CNS): 18.5 µM; TGI (IGROV1 ovarian): 24.6 µM; TGI (OVCAR-5 ovarian): 20.2 µM; TGI (MCF7 breast): 27.4 µM; TGI (UACC-257 melanoma): 27.4 µM; TGI (ACHN renal): 20.8 µM; TGI (786-0 renal): 22.6 µM; TGI (HCT-116 colon): 21 µM; TGI (T-47D breast): 20.6 µM; TGI (MDA-MB-231 breast): 26.7 µM; TGI (EKVX NSCLC): 11.6 µM; TGI (MOLT-4 leukemia): > 40.8 µM; TGI (COLO 205 colon): 29.6 µM; TGI (SW-620 colon): > 46.7 µM; TGI (SK-OV-3 ovarian): 32.8 µM; TGI (K-562 leukemia): 32.9 µM; TGI (UO-31 renal): 16.2 µM; TGI (HT29 colon): 30.1 µM; TGI (NCI-H23 lung): 18.9 µM; TGI (PC-3 prostate): 13.8 µM; TGI (A549 NSCLC): > 41.3 µM; TGI (SF-295 CNS): 23.5 µM; TGI (SNB-19 CNS): 27.6 µM; TGI (MDA-N): 19.8 µM
